Source: patent publication US20190185509A1, “2'2' CYCLIC DINUCLEOTIDES WITH PHOSPHONATE BOND ACTIVATING THE STING ADAPTOR PROTEIN” (INSTITUTE OF ORGANIC CHEMISTRY AND BIOCHEMISTRY ASCR, V.V.I., priority 2017, published 2019)
One block for each compound: values may come before it.

How the values were obtained:
AQ STING (G230A-R293Q) = molecular target: T1, AQ STING (G230A-R293Q) (Homo sapiens, UniProt Q86WV6, G230A/H232R/R293Q); assay: Differential Scanning Fluorimetry (DSF) with AQ STING; assay type: binding; details: thermal shift vs apoprotein; truncated human AQ STING 0.1 mg/ml; 150 μM CDN
T1 construct: truncated human WT STING or AQ STING (amino acid residues 140-343) with N-terminal 8×His and SUMO tag; 8xHis-SUMO (N, cleaved yes); made in house; host or cells: E. coli Rosetta-gami B (DE3)
T1 sequence (Q86WV6 140-343 G230A/H232R/R293Q): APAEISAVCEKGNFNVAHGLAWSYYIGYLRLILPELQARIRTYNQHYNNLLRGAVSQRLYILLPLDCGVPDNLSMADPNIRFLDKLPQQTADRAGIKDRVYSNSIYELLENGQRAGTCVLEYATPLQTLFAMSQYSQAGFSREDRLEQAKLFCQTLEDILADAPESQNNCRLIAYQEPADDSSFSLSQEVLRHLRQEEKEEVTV
Method: (§1) WT STING and AO STING Proteins
(§2) Purified PCR products were cleaved with restriction enzymes BamHI (cat. #R0136S, NEB, Ipswich, USA) and NotI (cat. #R0189S, NEB, Ipswich, USA) and cloned into the pSUMO vector linearized with the identical enzymes.
(§3) DNase I (cat. #D5025, Sigma Aldrich, Czech Republic) and RNase A (cat. #R6513, Sigma Aldrich, Czech Republic) were added (final concentration 50 μg/ml) together with MgCl2 (final concentration 5 mmol·l^−1) to the homogenate and bacteria were lysed using French Press G-M™ High-Pressure Cell Press Homogenizer (1500 psi, 3 cycles). […] The resin was poured into a chromatography column, washed with 50 ml buffer A (50 mmol·l^−1 TrisCl (pH 8.0), 800 mmol·l^−1 NaCl, 3 mmol·l^−1 β-mercaptol; 10% glycerol; 20 mmol·l^−1 imidazole) and 8-His-SUMO tagged STING proteins were eluted with 15 ml buffer A containing 300 mmol·l^−1 imidazole. […] Proteins were concentrated with Amicon® Ultra-15 10 K device (cat. #UFC901008, Merck Millipore, Billerica, USA) and flash frozen in liquid N2.
(§4) Differential Scanning Fluorimetry with WT STING and AQ STING
(§5) 20 μL solutions of the reaction mixtures were pipetted in triplicates into 96 well optical reaction plates and thermal denaturation of samples were performed on real time PCR cycler (LightCycler R 480 Instrument II-Roche, Basel, Switzerland). The first derivative of the thermal denaturation curves was performed to calculate denaturing temperatures of STING-CDN complexes and STING apoproteins. The thermal shift for each CDN was calculated by subtracting the average denaturing temperature of STING apoprotein from the average denaturing temperature of STING CDN complex.

WT STING [1] = molecular target: T2, WT STING (Homo sapiens, UniProt Q86WV6, H232R); assay: Digitonin assay using 293T wtSTING-FL reporter cells; assay type: cell-based; details: 293T wtSTING-FL cells, ISRE firefly luciferase reporter; 30 min in Digitonin buffer, then 5 hours; 8-point dose-response
Source text: ISRE Reporter Plasmid (pGL64.27-4×ISRE)
Two complementary oligonucleotides of the sequence […] […] […] […] […] […] […] The oligonucleotides were mixed in equal molar amounts, hybridized, and cleaved by restriction endonucleases HindIII (cat. #. R0104S, NEB, Ipswich, USA) and BglII (cat. #R0144S, NEB, Ipswich, USA). Ultimately, they were ligated into plasmid pGL4.27 (cat. #E6651, Promega, Madison, USA) linearized with the same enzymes. As result the sequence with four ISRE sites was placed upstream of the minimum promoter of firefly luciferase reporter gene.
After 5 minutes incubation at room temperature (RT), 250 μL of the mixture was added dropwise to the cells in one well. Cells were incubated 36 hours at 37° C. with 5% CO2, and then detached with 0.05% Trypsin and 0.22 g/L EDTA (both cat. #L0941, Biowest, Riverside, USA).
Transfected cells were seeded onto poly-D-lysine coated six well plates at density 50,000 cells per 1 cm^2 in DMEM medium with high glucose containing 10% heat inactivated FBS, 30 μg/mL blasticidin (cat. #ant-bl-05, InvivoGen, San Diego, USA), 0.06 mg/ml Penicillin G and 0.1 mg/ml Streptomycin Sulfate (both cat. #. L0018, Biowest, Riverside, USA). The medium was replenished every 3-4 days until visible colonies of cells resistant to blasticidin were formed.
Blasticidin resistant cells stably expressing WT STING were further transfected with pGL64.27-4×ISRE plasmid following the same procedure as described above. […] Homogeneous culture of stably double transfected cells was prepared by limiting dilution of cells in 96 well plates and wells with cells were selected that originated from a single cell.
The medium was removed next day and three fold serial dilutions of compounds in Digitonin buffer containing 50 mmol·l^−1 HEPES (cat. #H3375, Sigma Aldrich, Czech Republic) pH 7.0, 100 mmol·l^−1 KCl, 3 mmol·l^−1 MgCl2, 0.1 mmol·l^−1 DTT (cat. #D0632, Sigma Aldrich, Czech Republic), 85 mmol·l^−1 Sucrose (cat. #S7903, Sigma Aldrich, Czech Republic), 0.2% BSA (cat. #A2153, Sigma Aldrich, Czech Republic), 1 mmol·l^−1 ATP (cat. #A1852, Sigma Aldrich, Czech Republic), 0.1 mmol·l^−1 GTP (cat. #G8877, Sigma Aldrich, Czech Republic), and 10 μg/mL Digitonin A (cat. #D141, Sigma Aldrich, Czech Republic) were added to the cells. The buffer was removed after 30 minutes incubation at 37° C. with 5% CO2, the cells were washed once with 100 μl of cultivation medium, and 100 μl of medium was added to each well. The plates with cells were incubated for 5 hours at 37° C. with 5% CO2, 50 μl of the medium was removed and 30 μl of ONE-Glo™ Luciferase Assay System reagent (cat. #E6120, Promega, Madison, USA) was added to each well. Luminescence was read on Synergy H1 (Biotek, Winooski, USA).
Target sequence in this assay (Q86WV6 whole entry H232R): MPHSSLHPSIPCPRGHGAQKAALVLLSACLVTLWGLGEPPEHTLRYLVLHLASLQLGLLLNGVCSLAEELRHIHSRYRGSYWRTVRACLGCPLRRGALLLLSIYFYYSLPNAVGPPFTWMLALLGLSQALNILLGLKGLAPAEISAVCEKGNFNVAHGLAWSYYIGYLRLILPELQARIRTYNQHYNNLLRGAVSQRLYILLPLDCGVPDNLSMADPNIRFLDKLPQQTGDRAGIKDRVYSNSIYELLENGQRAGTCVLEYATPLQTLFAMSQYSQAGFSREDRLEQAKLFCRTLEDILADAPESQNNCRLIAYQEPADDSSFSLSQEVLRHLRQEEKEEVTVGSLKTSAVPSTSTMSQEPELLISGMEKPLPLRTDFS

WT STING [2] = molecular target: T2, WT STING; assay: Differential Scanning Fluorimetry (DSF) with WT STING; assay type: binding; set-up: truncated human WT STING or AQ STING (amino acid residues 140-343) with N-terminal 8×His and SUMO tag; 8xHis-SUMO (N, cleaved yes); made in house; host or cells: E. coli Rosetta-gami B (DE3); details: thermal shift vs apoprotein; truncated human WT STING 0.1 mg/ml; 150 μM CDN
Method: as §1, §2, §3, §4, §5
Target sequence in this assay (Q86WV6 140-343 H232R): as the sequence (Q86WV6 140-343 G230A/H232R/R293Q) above, with A91G, Q154R counted along it

Structure (SMILES): Nc1ncnc2c1ncn2[C@@H]1O[C@@H]2OCP(=O)(O)O[C@@H]3[C@H](O)[C@@H](OCP(=O)(O)O[C@@H]1[C@@H]2O)O[C@H]3n1cnc2c(N)ncnc21 [Compound 11, (1R,6R,8R,9R,14R,16R,17S,18S)-8,16-bis(6-amino-9H-purin-9-yl)-3,11,17,18-tetrahydroxy-2,5,7,10,13,15-hexaoxa-3,11-diphosphatricyclo[12.2.1.1^6,9]octadecane 3,11-dioxide]
- DSF ΔTm AQ STING (AQ STING (G230A-R293Q)): 7.9 °C
- EC50 (WT STING [1]): 4.2 µM
- DSF ΔTm WT STING (WT STING [2]): 2.5 °C

Structure (SMILES): Nc1ncnc2c1ncn2[C@@H]1O[C@@H]2COP(=O)(O)O[C@H]3[C@H](O)[C@@H](COCP(=O)(O)O[C@@H]1[C@@H]2O)O[C@H]3n1cnc2c(N)ncnc21 [Compound 15, (1S,6R,8R,9R,15R,17R,18R,19R)-8,17-bis(6-amino-9H-purin-9-yl)-3,11,18,19-tetrahydroxy-2,4,7,10,13,16-hexaoxa-3,11-diphosphatricyclo[13.2.1.16,9]nonadecane 3,11-dioxide]
- DSF ΔTm AQ STING (AQ STING (G230A-R293Q)): 5.5 °C
- EC50 (WT STING [1]): 16.4 µM
- DSF ΔTm WT STING (WT STING [2]): 1.7 °C

Results, then the compound that gave them:

- DSF ΔTm AQ STING (AQ STING (G230A-R293Q)): 6.3 °C
- EC50 (WT STING [1]): 6 µM
- DSF ΔTm WT STING (WT STING [2]): 2.0 °C
Structure (SMILES): Nc1ncnc2c1ncn2[C@@H]1O[C@@H]2COP(=O)(O)O[C@@H]3[C@H](O)[C@@H](COCP(=O)(O)O[C@@H]1[C@@H]2O)O[C@H]3n1cnc2c(N)ncnc21 [Compound 12, (1R,6R,8R,9R,15R,17R,18R,19R)-8,17-bis(6-amino-9H-purin-9-yl)-3,11,18,19-tetrahydroxy-2,4,7,10,13,16-hexaoxa-3,11-diphosphatricyclo[13.2.1.1^6,9]nonadecane 3,11-dioxide]

- DSF ΔTm WT STING (WT STING [2]): 0.6 °C
Structure (SMILES): C[C@]12OCP(=O)(O)O[C@H]3[C@H](n4cnc5c(N)ncnc54)O[C@](C)(OCP(=O)(O)O[C@@H]([C@H](n4cnc5c(N)ncnc54)O1)[C@@H]2O)[C@H]3O [Compound 13, (1R,6R,8R,9R,14R,16R,17S,18S)-8,16-bis(6-amino-9H-purin-9-yl)-3,11,17,18-tetrahydroxy-6,14-dimethyl-2,5,7,10,13,15-hexaoxa-3,11-diphosphatricyclo[12.2.1.1^6,9]octadecane 3,11-dioxide]

- DSF ΔTm AQ STING (AQ STING (G230A-R293Q)): 20.8 °C
- EC50 (WT STING [1]): 2.35 µM
- DSF ΔTm WT STING (WT STING [2]): 0.7 °C
Structure (SMILES): Nc1ncnc2c1ncn2[C@@H]1O[C@@H]2OCP(=O)(O)O[C@@H]3[C@H](O)[C@@H](COP(=O)(O)O[C@@H]1[C@@H]2O)O[C@H]3n1cnc2c(N)ncnc21 [Compound 14, (1R,6R,8R,9R,14R,16R,17S,18R)-8,16-bis(6-amino-9H-purin-9-yl)-3,11,17,18-tetrahydroxy-2,4,7,10,13,15-hexaoxa-3,11-diphosphatricyclo[12.2.1.1^6,9]octadecane 3,11-dioxide]
